Experimental findings from PMC7433010, “Exploration of multi‐target effects of 3‐benzoyl‐5‐hydroxychromen‐2‐one in Alzheimer’s disease cell and mouse models” (Aging Cell, 2020) are described below.

Series [1] in a line: Body weight in STZ‐treated 3 × Tg‐AD mice. Type of series: in vivo, mouse. To be noted: 40 mg/kg i.p.; among the three groups. How it is done: For the in vivo LM‐031 treatment experiments, 6‐month‐old male homozygous 3 × Tg‐AD mice (n = 10 per group) were used. Mice were randomly divided into three groups: – streptozocin (STZ), STZ, and STZ/LM‐031. STZ‐induced hyperglycemia was used to accelerate the development of AD phenotype. Mouse body weight and blood glucose level were measured on days 1, 8, 15, 22, and 29. LM‐031 (40 mg/kg) or vehicle (DMSO:Cremophor EL:0.9% saline = 1:2:7) was intraperitoneally injected every day for 22 days from days 15 to 36. All animal procedures were ethically approved by the Institutional Animal Care and Use Committee of National Taiwan Normal University, Taipei, Taiwan (Permit Number: 103002) and were conducted in compliance with the ARRIVE (Animal Research: Reporting In Vivo Experiments) guidelines. Open‐field task, Y‐maze task, Morris water maze task, and immunohistochemistry and image analysis were performed.
Mice harboring APPSwe, PS1M146V, and […] transgenes (3×Tg-AD) (Oddo et al., 2003) were purchased from the Jackson Laboratory (004807; Bar Harbor, ME, USA). […] Mouse body weight was measured and blood glucose level was measured on days 1, 8, 15, 22, and 29 using a blood glucose meter (Bioland Technology, Taipei, Taiwan). […]

For a further series, the system named is CREB. In words: Western blot of CREB in ∆K280 TauRD‐DsRed SH‐SY5Y cells. It counts as cell-based, human. To be noted: 1 µM; induced untreated 82%, uninduced 100%. How it is done: (§1) To knock down CREB expression in ∆K280 TauRD-DsRed SH-SY5Y cells, lentiviral short hairpin RNA (shRNA) targeting CREB (TRCN0000226466), NRF2 (TRCN0000007558), and a negative control scrambled (TRC2.Void) were obtained from National RNAi Core Facility, IMB/GRC, Academia Sinica, Taipei, Taiwan. On day 1, cells were plated on 6-well plates (for protein analysis) or 24-well plates (for neurite outgrowth analysis) in the presence of retinoic acid as described. On the second day, the cells were infected with lentivirus (multiplicity of infection: 3) in medium with polybrene (8 µg/mL; Sigma-Aldrich). […] On day 9, the cells were collected for NRF2, CREB, pCREB, and cleaved CASP3 protein analysis or analyzed for neurite outgrowth as described.
(§2) Total proteins from ∆K280 TauRD-DsRed SH-SY5Y cells were obtained using a RIPA buffer containing 50 mM Tris-HCl (pH8.0), 150 mM NaCl, 2 mM EDTA (pH8.0), 50 mM NaF, 0.1% SDS, 0.5% sodium deoxycholate, 1% NP40, and a protease inhibitor cocktail (Sigma-Aldrich). […] Protein concentrations were determined using a protein assay kit (Bio-Rad, Hercules, CA, USA), with albumin as a standard. […] Subsequently, immune complexes were detected using a horseradish peroxidase-conjugated goat anti-mouse or goat anti-rabbit IgG antibody (1:5000; GeneTex, Irvive, CA, USA) and a chemiluminescent substrate (Millipore).
For orientation: Immunoblotting shows a protein as a band on a membrane.

A short description of series [2]: PAMPA‐BBB permeability assay. Background: In PAMPA a lipid-coated filter parts donor from acceptor wells.
Procedure: The permeability of LM-031 was determined by a PAMPA-BBB assay. Briefly, the donor well (Millipore) was filled with 300 μl of LM-031 (1 μM) solution. […] The filter membrane (PVDF membrane, pore size 0.45 μm; Millipore) was coated with 4 μl of 20 mg/ml porcine polar brain lipid (Avanti Polar Lipids, Alabaster, AL, USA) in dodecane and the acceptor well was filled with 200 μl of acceptor buffer (5% DMSO in PBS). The filter plate was carefully placed on the donor plate to form a “sandwich” (consisting of aqueous donor on the bottom, artificial lipid membrane in the middle, and aqueous acceptor on the top). Each compound was tested in triplicate. The sandwich plate was incubated at room temperature for 18 h. After the permeation time, the PAMPA sandwich plate was separated. The concentration of LM-031 in the acceptor and donor wells was determined using QTRAP 6500 mass spectrometer (AB SCIEX, Singapore) linked to 1200 HPLC system (Agilent Technologies, Palo Alto, CA, USA).
A further series has as its system GCLC. As to the kind of experiment: Western blot of GCLC in ∆K280 TauRD‐DsRed SH‐SY5Y cells. It counts as cell-based, human. To be noted: 1 µM; induced untreated 78%, uninduced 100%. How it is done:
(§3) Total proteins from ∆K280 TauRD-DsRed SH-SY5Y cells were obtained using a RIPA buffer containing 50 mM Tris-HCl (pH8.0), 150 mM NaCl, 2 mM EDTA (pH8.0), 50 mM NaF, 0.1% SDS, 0.5% sodium deoxycholate, 1% NP40, and a protease inhibitor cocktail (Sigma-Aldrich). After sonication and sitting on ice for 20 min, the lysates were centrifuged at 14,000 × g for 30 min at 4°C. Protein concentrations were determined using a protein assay kit (Bio-Rad, Hercules, CA, USA), with albumin as a standard. Total proteins (20 µg) were electrophoresed on 10% or 12% SDS-polyacrylamide gel and transferred onto polyvinylidene difluoride (PVDF) membranes (Sigma-Aldrich) through reverse electrophoresis. […] Subsequently, immune complexes were detected using a horseradish peroxidase-conjugated goat anti-mouse or goat anti-rabbit IgG antibody (1:5000; GeneTex, Irvive, CA, USA) and a chemiluminescent substrate (Millipore).

A further series deals with ΔK280 TauRD‐DsRed. As to the kind of experiment: Western blot of soluble ΔK280 TauRD‐DsRed in SH‐SY5Y cells. It counts as cell-based, human. To be noted: 1 µM, not significant. How it is done: as §1, §2
The subject of another series is BCL2. As to the kind of experiment: Western blot of BCL2 in ∆K280 TauRD‐DsRed SH‐SY5Y cells. Type of series: cell-based, human. To be noted: 1 µM; induced untreated 83%, uninduced 100%. How it is done: as §3
In a further series the test system is GADD45B. As to the kind of experiment: Western blot of GADD45B in ∆K280 TauRD‐DsRed SH‐SY5Y cells. Type of series: cell-based, human. Particulars: 1 µM; induced untreated 65%, uninduced 100%. How it is done: as §3
The test system of series [3] is STZ‐induced hyperglycemic 3 × Tg‐AD mice. As to the kind of experiment: Open‐field test in STZ‐treated 3 × Tg‐AD mice. Type of series: in vivo, mouse. Particulars: day 24; 40 mg/kg i.p. How it is done: Mice harboring APPSwe, PS1M146V, and […] transgenes (3×Tg-AD) (Oddo et al., 2003) were purchased from the Jackson Laboratory (004807; Bar Harbor, ME, USA). Six-month-old male homozygous 3×Tg-AD mice were group housed at 20–25°C and 60% relative humidity under a daily 12-h light/12-h dark cycle, with assess to food and water ad libitum. Mice were randomly divided into 3 groups: – streptozocin (STZ), STZ, and STZ/LM-031 (n = 10 per group). STZ-induced hyperglycemia was used to accelerate the development of AD phenotype (Chen et al., 2014). Briefly, the mice were fasted for 12 h each day prior to intraperitoneal (i.p.) injection of STZ ([…]; Sigma-Aldrich) or vehicle (0.1 M sodium citrate pH4.5) for 4 times (days 2, 3, 9, and 10) (Chen et al., 2019). Mouse body weight was measured and blood glucose level was measured on days 1, 8, 15, 22, and 29 using a blood glucose meter (Bioland Technology, Taipei, Taiwan). LM-031 (40 mg/kg) or vehicle (DMSO:Cremophor EL:0.9% saline = 1:2:7) was intraperitoneally injected every day for 22 days from days 15 to 36. All animal procedures were ethically approved by the Institutional Animal Care and Use Committee of National Taiwan Normal University, Taipei, Taiwan (Permit Number: 103002) and were conducted in compliance with the ARRIVE (Animal Research: Reporting In Vivo Experiments) guidelines. […]

One may read the Papp as a coefficient for how fast a substance crosses the barrier. A higher Papp goes with ready permeation. As for `O=C(c1ccccc1)c1cc2c(O)cccc2oc1=O` [LM‐031, 3‐benzoyl‐5‐hydroxychromen‐2‐one], the body weight entry in series [1] is “No significant change”. This molecule showed a CREB protein level in the series with CREB of 122%. Further, in series [2], the Papp at 18 h, 1 µM was determined as 4.8 ± 0.12 ×10⁻⁶ cm/s. This molecule also yielded a GCLC protein level with GCLC of 120%. For the same molecule, the “soluble TauRD‐DsRed protein level” value stood at 104% in the series on ΔK280 TauRD‐DsRed (CREB‐specific shRNA‐infected cells, untreated 86%) and 103% in the series with ΔK280 TauRD‐DsRed (NRF2‐specific shRNA‐infected cells, untreated 82%). This molecule also returned a BCL2 protein level in the series on BCL2 of 106%. For the same molecule, the GADD45B protein level in the series with GADD45B stood at 111%. In addition, the “open‐field distance traveled and inactive time” value in series [3] is “No significant change”.
